The target in experiment [1] is T1, phosphorylated VEGF-R2Δ50 (FLVK-P) (Homo sapiens, UniProt P35968, DEL940-989/E990V).
T1 construct: VEGF-R2Δ50 contains residues 806-939 and 990-1171; made in house; host or cells: baculovirus/insect cells
Put plainly: VEGF-R2 coupled spectrophotometric assay, phosphorylated construct (FLVK-P). The format is biochemical. An excerpt: A construct (VEGF-R2Δ50) of the cytosolic domain of human vascular endothelial growth factor receptor 2 (VEGF-R2) lacking the 50 central residues of the 68 residues of the kinase insert domain was expressed in a baculovirus/insect cell system. Of the 1356 residues of full-length VEGF-R2, VEGF-R2Δ50 contains residues 806-939 and 990-1171, and also one point mutation (E990V) within the kinase insert domain relative to wild-type VEGF-R2. See commonly assigned, co-pending U.S. patent application Ser. No. 09/390,326, filed Sep. 7, 1999, incorporated by reference herein, for discussion of VEGF constructs and expression systems. Autophosphorylation of the purified construct was performed by incubation of the enzyme at a concentration of 4 μM in the presence of 3 mM ATP and 40 mM MgCl2 in 100 mM Hepes, pH 7.5, containing 5% glycerol and 5 mM DTT, at 4° C. for 2 h. […] See Parast et al., Biochemistry, 37, 16788-16801 (1998).
The production of ADP from ATP that accompanies phosphoryl transfer was coupled to oxidation of NADH using phosphoenolpyruvate (PEP) and a system having pyruvate kinase (PK) and lactic dehydrogenase (LDH). The oxidation of NADH was monitored by following the decrease of absorbance at 340 nm (e340=6.22 cm^−1 mM^−1) using a Beckman DU 650 spectrophotometer. Assay conditions for phosphorylated VEGF-R2Δ50 (indicated as FLVK-P in the tables below) were the following: 1 mM PEP; 250 μM NADH; 50 units of LDH/mL; 20 units of PK/mL; 5 mM DTT; 5.1 mM poly(E4Y1); 1 mM ATP; and 25 mM MgCl2 in 200 mM Hepes, pH 7.5. Assay conditions for unphosphorylated VEGF-R2Δ50 (indicated as FLVK in the tables) were the following: 1 mM PEP; 250 μM NADH; 50 units of LDH/mL; 20 units of PK/mL; 5 mM DTT; 20 mM poly(E4Y1); 3 mM ATP; and 60 mM MgCl2 and 2 mM MnCl2 in 200 mM Hepes, pH 7.5. Assays were initiated with 5 to 40 nM of enzyme. Ki values were determined by measuring enzyme activity in the presence of varying concentrations of test compounds. The data were analyzed using Enzyme Kinetic and Kaleidagraph software.

The test system of experiment [2] is human umbilical vein endothelial cells (HUVEC). Put plainly: HUVEC proliferation assay (VEGF-stimulated, MTT). The format is cell-based. As to the method:
This assay determines the ability of a test compound to inhibit the growth factor-stimulated proliferation of human umbilical vein endothelial cells (“HUVEC”). HUVEC cells (passage 3-4, Clonetics, Corp.) were thawed into EGM2 culture medium (Clonetics Corp) in T75 flasks. Fresh EGM2 medium was added to the flasks 24 hours later. Four or five days later, cells were exposed to another culture medium (F12K medium supplemented with 10% fetal bovine serum (FBS), 60 μg/ml endothelial cell growth supplement (ECGS), and 0.1 mg/ml heparin). Exponentially-growing HUVEC cells were used in experiments thereafter. Ten to twelve thousand HUVEC cells were plated in 96-well dishes in 100 μl of rich, culture medium (described above). The cells were allowed to attach for 24 hours in this medium. The medium was then removed by aspiration and 105 μl of starvation media (F12K+1% FBS) was added to each well. After 24 hours, 15 μl of test agent dissolved in 1% DMSO in starvation medium or this vehicle alone was added into each treatment well; the final DMSO concentration was 0.1%. One hour later, 30 μl of VEGF (30 ng/ml) in starvation media was added to all wells except those containing untreated controls; the final VEGF concentration was 6 ng/ml. Cellular proliferation was quantified 72 hours later by MTT dye reduction, at which time cells were exposed for 4 hours MTT (Promega Corp.). Dye reduction was stopped by addition of a stop solution (Promega Corp.) and absorbance at 595 λ was determined on a 96-well spectrophotometer plate reader.

Experiment [3] deals with lung cancer cells (line MV522). Put plainly: Cancer cell proliferation (MV522) assay (MTT). The format is cell-based. As to the method:
The protocol for assessing cellular proliferation in cancer cells is similar to that used for assessments in HUVEC cells. Two thousand lung cancer cells (line MV522, acquired from American Tissue Cultural Collection) were seeded in growth media (RPMI1640 medium supplemented with 2 mM glutamine and 10% FBS). Cells are allowed to attach for 1 day prior to addition of test agents and/or vehicles. Cells are treated simultaneously with the same test agents used in the HUVEC assay. Cellular proliferation is quantified by MTT dye reduction assay 72 hours after exposure to test agents. The total length of the assay is 4 days vs. 5 for HUVEC cells because MV522 cells are not exposed to starvation medium.

The target of experiment [4] is T2, unphosphorylated VEGF-R2Δ50 (FLVK) (Homo sapiens, UniProt P35968, DEL940-989/E990V).
T2 construct: VEGF-R2Δ50 contains residues 806-939 and 990-1171; made in house; host or cells: baculovirus/insect cells
Put plainly: VEGF-R2 coupled spectrophotometric assay, unphosphorylated construct (FLVK).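 Further: Baculovirus-expressed cytosolic kinase domain, ADP formation linked via pyruvate kinase and lactate dehydrogenase to NADH oxidation, read as falling absorbance at 340 nm.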 Format: biochemical.

Setting [5] is: Homo sapiens, HUVEC, read-out: HUVEC IC50.
Setting [6] is: unphosphorylated VEGF-R2 construct.
[7] abbreviates: Homo sapiens, HUVEC proliferation with albumin, read-out: Huvec + Albumin IC50.

Counter-ions that a name gives are not always drawn. Like-named read-outs stand apart in the source and are kept apart here. Where only a bound is given, the exact number is not on record here.

T1 sequence (P35968 with tags, fused parts or gaps DEL940-989/E990V limits assumed): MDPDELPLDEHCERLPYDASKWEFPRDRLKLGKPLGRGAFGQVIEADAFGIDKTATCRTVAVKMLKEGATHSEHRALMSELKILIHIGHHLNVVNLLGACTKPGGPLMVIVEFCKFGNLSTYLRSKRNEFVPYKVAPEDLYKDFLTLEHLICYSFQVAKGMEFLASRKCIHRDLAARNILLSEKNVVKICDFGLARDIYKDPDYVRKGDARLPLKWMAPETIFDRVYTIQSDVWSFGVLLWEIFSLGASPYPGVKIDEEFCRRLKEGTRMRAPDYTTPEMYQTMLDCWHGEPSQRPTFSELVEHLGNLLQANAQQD
T2 sequence (P35968 with tags, fused parts or gaps DEL940-989/E990V limits assumed): as above

The compound `CC(C)c1cccc(NC(=O)c2cccc(CSc3ncnc4[nH]ncc34)c2)c1` [Example B-15, 3-[(1H-Pyrazolo[3,4-d]pyrimidin-4-yl)sulfanylmethyl]-N(3-isopropylphenyl)-benzamide] gave an inhibition constant (Ki) in experiment [1] of 15.7 nM. Further, the values for the IC50 in experiment [2] (setting [5]) and in experiment [3] (MV522) were 120 nM and > 10000 nM, respectively.

The compound `N#Cc1ccc(NC(=O)c2cccc(CSc3ncnc4[nH]ncc34)c2)cc1C(F)(F)F` [Example B-12, N-[4-cyano-3-(trifluoromethyl)phenyl]-3-[(1H-pyrazolo[3,4-d]pyrimidin-4-yl-sulfanyl)methyl]benzamide] came in with a Ki in experiment [1] of 28 nM. For the same compound, the concentration for half-maximal inhibition (IC50) in experiment [2] (setting [5]) was 530 nM; in experiment [3] (MV522) it was > 10000 nM.

In experiment [1], `O=C(Nc1cccc(CSc2ncnc3[nH]ncc23)c1)c1cc(C(F)(F)F)cc(C(F)(F)F)c1` [Example V-2] showed an inhibitory constant (Ki) of 13 nM. In addition, the half-maximal inhibitory concentration (IC50) came out at 180 nM in experiment [2] (setting [5]) and 10000 nM in experiment [3] (MV522).

For the compound `Cc1ccc2cc(NC(=O)c3cccc(OCc4cccnc4)c3)ccc2n1` [Example K-9, N-(2-Methyl-quinolin-6-yl)-3-(pyridin-3-yl)methoxy-benzamide], the Ki in experiment [1] is 109 nM; in experiment [4], 10 nM.

Compound `O=C(Nc1ccc2c(c1)CCCN2)c1ccc(F)c(OCc2cncc3ccccc23)c1` [Example O-1, 4-Fluoro-N-(1,2,3,4-tetrahydroquinolin-6-yl)-3-(isoquinolin-4-ylmethoxy)-benzamide bistrifluoroacetic acid salt] registered a Ki in experiment [4] of 5.5 nM. For the same compound, the results for the 50% inhibitory concentration (IC50) in experiment [2] (setting [5]) and in experiment [3] (MV522) were > 300 nM and < 3000 nM, respectively.

On to `CSc1cc(C)nc2ccc(NC(=O)c3cccc(OCc4cncc5ccccc45)c3)cc12` [Example K-4, 3-(Isoquinolin-4-yl)methoxy-N-(2-methyl-4-methylsulfanyl-quinolin-6-yl)-benzamide hydrochloride], for which the affinity in experiment [1] corresponds to a Ki of 64 nM. The values for the half-maximal inhibitory concentration (IC50) in experiment [2] (setting [5]) and in experiment [3] (MV522) were 380 nM and > 10000 nM, respectively.

For `O=C(Nc1ccc(N2CCNCC2)c(C(F)(F)F)c1)c1ccc(F)c(OCc2cncc(Br)c2)c1` [Example R-25, 3-(5-Bromo-pyridin-3-ylmethoxy)-4-fluoro-N-(4-piperazin-1-yl-3-trifluoromethyl-phenyl)-benzamide], the Ki in experiment [4] is 6.6 nM. Besides, in experiment [2] (Homo sapiens, HUVEC, with albumin, read-out: Huvec + Albumin IC50), the IC50 is 155 nM.

The compound `Cc1c(Br)cc(NC(=O)c2cccc(OCc3cncc4ccccc34)c2)cc1Br` [Example R-2, N-(3,5-Dibromo-4-methyl-phenyl)-3-(isoquinolin-4-ylmethoxy)-benzamide] showed a Ki in experiment [1] of 2.53 nM. Besides, the half-maximal inhibitory concentration (IC50) in experiment [2] (setting [5]) was found to be 110 nM; in experiment [3] (MV522) it was 430 nM.

The compound `CC(C)(C)c1cccc(NC(=O)c2cccc(CSc3ncnc4[nH]ncc34)c2)c1` [Example B-18, 3-[(1H-Pyrazolo[3,4-d]pyrimidin-4-yl)sulfanylmethyl]-N(3-t-butylpheny)-benzamide] displayed a Ki in experiment [1] of 5.84 nM. In addition, the IC50 in experiment [2] (read-out: HUVEC IC50) was 130 nM; in experiment [3], > 10000 nM.

Turning to `Cc1cc(NC(=O)c2cccc(CCc3cncc4ccccc34)c2)ccc1C(C)C` [Example S-3, N-(4-Isopropyl-3-methyl-phenyl)-3-(2-isoquinolin-4-yl-ethyl)-benzamide], the Ki turned out to be 8.7 nM in experiment [1] and 0.76 nM in experiment [4]. Moreover, the IC50 in experiment [2] (setting [5]) amounted to 180 nM.

For `CC1(C)CCC(C)(C)c2cc(NC(=O)c3cccc(OCc4cncc5ccccc45)c3)ccc21` [Example R-3, 3-(Isoquinolin-4-ylmethoxy)-N-(5,5,8,8-tetramethyl-5,6,7,8-tetrahydronaphthalen-2-yl)-benzamide], the inhibition at 5 µM in experiment [1] (@ 5 μM, read-out: FLVK-P percent inhibition) was found to be 67%. Also, the half-maximal inhibitory concentration (IC50) amounted to 50 nM in experiment [2] (setting [5]) and 9700 nM in experiment [3] (MV522).

For `Cc1cc(NC(=O)c2cc(CCc3cncc4ccccc34)c(F)cc2Cl)ccc1C(C)C` [Example S-7, 2-Chloro-4-fluoro-N-(4-isopropyl-3-methyl-phenyl)-5-(2-isoquinolin-4-yl-ethyl)-benzamide], the inhibition at 0.05 µM in experiment [4] (@ 50 nM, read-out: FLVK percent inhibition) turned out to be 19%. The concentration for half-maximal inhibition (IC50) in experiment [2] (setting [5]) was > 300 nM.

`Cc1cc(NC(=O)c2cccc(SCc3cnccn3)c2)ccc1C(C)C` [Example D-1, N-(4-Isopropyl-3-methylphenyl)-3-[(pyrazin-2-yl)methylsulfanyl]benzamide] had an inhibitory constant (Ki) in experiment [1] of 28 nM. Further, the concentration for half-maximal inhibition (IC50) is 520 nM in experiment [2] (setting [5]) and > 10000 nM in experiment [3] (MV522).

As for `O=C(Nc1ccc(N2CCNCC2)c(C(F)(F)F)c1)c1ccc(F)c(CCc2cnc3[nH]cnc3c2)c1` [DD-1, 4-Fluoro-3-[2-(3H-imidazo[4,5-b]pyridin-6-yl)-ethyl]-N-(4-piperazin-1-yl-3-trifluoromethyl-phenyl)-benzamide dihydrochloride], in experiment [4] (setting [6]), the Ki is 5.6 nM. In addition, the half-maximal inhibitory concentration (IC50) in experiment [2] (setting [7]) is 700 nM.

In experiment [1], `COc1cc(/C=C/c2cc(CNc3cccc(C(=O)Nc4ccc(C(C)C)c(C)c4)c3)[nH]n2)ccc1O` [Example I-1, 3-[({3-[(E)-2-(4-hydroxy-3-methoxyphenyl)ethenyl]-1H-pyrazol-5-yl}methyl)amino]-N-(3-methyl-4-isopropylphenyl)benzamide] registered an inhibitory constant (Ki) of 8.84 nM. In addition, the figures for the IC50 in experiment [2] (setting [5]) and in experiment [3] (MV522) were 220 nM and > 10000 nM, respectively.

In the case of `O=C(Nc1cc(C(F)(F)F)cc(C(F)(F)F)c1)c1cccc(CSc2ncnc3[nH]ncc23)c1` [Example B-17, 3-[(1H-Pyrazolo[3,4-d]pyrimidin-4-yl)sulfanylmethyl]-N(3,5-bis-trifluoromethylphenyl)-benzamide], the Ki in experiment [1] came to 6.95 nM. Besides, the half-inhibitory concentration (IC50) in experiment [2] (setting [5]) was > 700 nM; in experiment [3] (MV522) it was > 10000 nM.

`Nc1ccc(CCc2cccc(C(=O)Nc3ccc(N4CCNCC4)c(C(F)(F)F)c3)c2)cn1` [AA-2, 3-[2-(6-Amino-pyridin-3-yl)-ethyl]-N-(4-piperazin-1-yl-3-trifluoromethyl-phenyl)-benzamide dihydrochloride] returned a Ki in experiment [4] (setting [6]) of 25 nM. Moreover, the IC50 in experiment [2] (setting [7]) turned out to be 80 nM.

As for `COc1cc(/C=C/c2cc(CSc3cccc(C(=O)Nc4ccc5nc(C)ccc5c4)c3)[nH]n2)ccc1O` [Example F-1, 3-[{5-((E)-2-(4-Hydroxy-3-methoxyphenyl)ethenyl)-2H-pyrazol-3-yl}methylsulfanyl]-N-(2-methylquinolin-6-yl)benzamide], the Ki in experiment [1] was 2.36 nM. Besides, the 50% inhibitory concentration (IC50) is 710 nM in experiment [2] (setting [5]) and > 10000 nM in experiment [3] (MV522).

Consider `O=C(Nc1ccc(N2CCNCC2)c(C(F)(F)F)c1)c1cccc(CCc2cnc3[nH]cnc3c2)c1` [BB-1, 3-[2-(3H-Imidazo[4,5-b]pyridin-6-yl)-ethyl]-N-(4-piperazin-1-yl-3-trifluoromethyl-phenyl)-benzamide dihydrochloride], for which the Ki in experiment [4] (setting [6]) stood at 10.8 nM. The concentration for half-maximal inhibition (IC50) in experiment [2] (setting [7]) is 940 nM.

Values taken from patent US6635641B2 (Agouron Pharmaceuticals, Inc., priority 2000, dated 2003).
